# From US9682995B2, “Amino-substituted isothiazoles” (BAYER PHARMA AKTIENGESELLSCHAFT, priority 2013, dated 2017)
# Legend:
# Experiment in all cases: Kinase Profiling (KINOMEscan)
# Assay type in all cases: binding
# [1] = biological target: 456 kinases (of these 395 non-mutant kinases) (Homo sapiens, UniProt P51957); settings: NEK4; 10 μM
# [2] = biological target: 456 kinases (of these 395 non-mutant kinases) (Homo sapiens, UniProt O00238); settings: BMPR1B; 10 μM
# [3] = biological target: 456 kinases (of these 395 non-mutant kinases) (Homo sapiens, UniProt Q96NX5); settings: CAMK1G; 10 μM
# [4] = biological target: 456 kinases (of these 395 non-mutant kinases) (Homo sapiens, UniProt Q9H093); settings: SNARK; 10 μM
# [5] = biological target: 456 kinases (of these 395 non-mutant kinases) (Homo sapiens, UniProt P42345); settings: MTOR; 10 μM
# [6] = biological target: 456 kinases (of these 395 non-mutant kinases) (Homo sapiens, UniProt P27448); settings: MARK3; 10 μM
# [7] = biological target: 456 kinases (of these 395 non-mutant kinases) (Homo sapiens, UniProt O00750); settings: PIK3C2B; 10 μM
# [8] = biological target: 456 kinases (of these 395 non-mutant kinases) (Homo sapiens, UniProt Q9UQM7); settings: CAMK2A; 10 μM
# [9] = biological target: 456 kinases (of these 395 non-mutant kinases) (Homo sapiens, UniProt Q9BWU1); settings: CDK11; 10 μM
# [10] = biological target: 456 kinases (of these 395 non-mutant kinases) (Homo sapiens, UniProt O14920); settings: IKK-beta; 10 μM
# [11] = biological target: 456 kinases (of these 395 non-mutant kinases) (Homo sapiens, UniProt P08581, Y1235D); settings: MET(Y1235D); 10 μM
# [12] = biological target: 456 kinases (of these 395 non-mutant kinases) (Homo sapiens, UniProt O15264); settings: p38-delta; 10 μM
# [13] = biological target: 456 kinases (of these 395 non-mutant kinases) (Homo sapiens, UniProt P48736); settings: PIK3CG; 10 μM
# [14] = biological target: 456 kinases (of these 395 non-mutant kinases) (Homo sapiens, UniProt Q02750); settings: MEK1; 10 μM
# [15] = biological target: 456 kinases (of these 395 non-mutant kinases) (Homo sapiens, UniProt O14757); settings: CHEK1; 10 μM
# [16] = biological target: 456 kinases (of these 395 non-mutant kinases) (Homo sapiens, UniProt P23443); settings: S6K1; 10 μM
# [17] = biological target: 456 kinases (of these 395 non-mutant kinases) (Homo sapiens, UniProt Q16539); settings: p38-alpha; 10 μM
# [18] = biological target: 456 kinases (of these 395 non-mutant kinases) (Homo sapiens, UniProt P17612); settings: PKAC-alpha; 10 μM
# [19] = biological target: 456 kinases (of these 395 non-mutant kinases) (Homo sapiens, UniProt Q9BX84); settings: TRPM6; 10 μM
# [20] = biological target: 456 kinases (of these 395 non-mutant kinases) (Homo sapiens, UniProt P78368); settings: CSNK1G2; 10 μM
# [21] = biological target: 456 kinases (of these 395 non-mutant kinases) (Homo sapiens, UniProt Q9Y6M4); settings: CSNK1G3; 10 μM
# [22] = biological target: 456 kinases (of these 395 non-mutant kinases) (Homo sapiens, UniProt Q32MK0); settings: MLCK; 10 μM
# [23] = biological target: 456 kinases (of these 395 non-mutant kinases) (Homo sapiens, UniProt P00519, F317L); settings: 10 μM
# [24] = biological target: 456 kinases (of these 395 non-mutant kinases) (Homo sapiens, UniProt O94921); settings: PFTK1; 10 μM
# [25] = biological target: 456 kinases (of these 395 non-mutant kinases) (Homo sapiens, UniProt Q8IY84); settings: NIM1; 10 μM
# [26] = biological target: 456 kinases (of these 395 non-mutant kinases) (Homo sapiens, UniProt O95747); settings: OSR1; 10 μM
# [27] = biological target: 456 kinases (of these 395 non-mutant kinases) (Homo sapiens, UniProt P36888, D835Y); settings: FLT3(D835Y); 10 μM
# [28] = biological target: 456 kinases (of these 395 non-mutant kinases) (Homo sapiens, UniProt Q15208); settings: NDR1; 10 μM
# [29] = biological target: 456 kinases (of these 395 non-mutant kinases) (Homo sapiens, UniProt Q9UEW8); settings: STK39; 10 μM
# [30] = biological target: 456 kinases (of these 395 non-mutant kinases) (Homo sapiens, UniProt P53350); settings: PLK1; 10 μM
# [31] = biological target: 456 kinases (of these 395 non-mutant kinases) (Homo sapiens, UniProt Q02779); settings: MLK2; 10 μM
# [32] = biological target: 456 kinases (of these 395 non-mutant kinases) (Homo sapiens, UniProt Q9H4B4); settings: PLK3; 10 μM
# 456 kinases (of these 395 non-mutant kinases) (Homo sapiens, UniProt O00238), sequence (O00238 14-502 limits assumed, change not shown): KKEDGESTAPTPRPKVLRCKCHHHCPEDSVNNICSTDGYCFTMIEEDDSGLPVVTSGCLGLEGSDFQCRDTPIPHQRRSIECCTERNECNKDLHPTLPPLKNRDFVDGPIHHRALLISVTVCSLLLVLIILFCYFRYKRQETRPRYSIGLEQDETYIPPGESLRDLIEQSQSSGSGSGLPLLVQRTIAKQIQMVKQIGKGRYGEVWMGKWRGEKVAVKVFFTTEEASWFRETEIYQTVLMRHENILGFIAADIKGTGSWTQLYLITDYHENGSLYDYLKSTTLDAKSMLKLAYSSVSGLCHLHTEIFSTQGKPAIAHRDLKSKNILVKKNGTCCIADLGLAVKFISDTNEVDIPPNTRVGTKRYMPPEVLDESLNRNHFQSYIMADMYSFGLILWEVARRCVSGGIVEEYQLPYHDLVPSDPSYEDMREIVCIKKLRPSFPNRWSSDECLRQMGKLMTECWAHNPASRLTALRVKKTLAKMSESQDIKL
# 456 kinases (of these 395 non-mutant kinases) (Homo sapiens, UniProt Q15208), sequence (Q15208 2-465 limits assumed, change not shown): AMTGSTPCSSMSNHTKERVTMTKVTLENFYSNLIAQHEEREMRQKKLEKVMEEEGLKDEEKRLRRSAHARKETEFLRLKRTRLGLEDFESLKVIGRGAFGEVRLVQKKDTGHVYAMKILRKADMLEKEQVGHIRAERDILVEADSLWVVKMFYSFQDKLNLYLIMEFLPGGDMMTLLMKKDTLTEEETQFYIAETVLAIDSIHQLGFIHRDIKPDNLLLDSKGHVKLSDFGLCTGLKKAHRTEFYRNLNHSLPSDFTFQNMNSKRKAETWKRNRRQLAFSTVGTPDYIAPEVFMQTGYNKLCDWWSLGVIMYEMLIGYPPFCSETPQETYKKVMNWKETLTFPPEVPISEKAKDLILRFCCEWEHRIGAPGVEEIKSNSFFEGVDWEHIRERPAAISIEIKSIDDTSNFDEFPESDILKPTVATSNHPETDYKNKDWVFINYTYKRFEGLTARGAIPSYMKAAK
# 456 kinases (of these 395 non-mutant kinases) (Homo sapiens, UniProt Q16539), sequence (Q16539 2-360 limits assumed, change not shown): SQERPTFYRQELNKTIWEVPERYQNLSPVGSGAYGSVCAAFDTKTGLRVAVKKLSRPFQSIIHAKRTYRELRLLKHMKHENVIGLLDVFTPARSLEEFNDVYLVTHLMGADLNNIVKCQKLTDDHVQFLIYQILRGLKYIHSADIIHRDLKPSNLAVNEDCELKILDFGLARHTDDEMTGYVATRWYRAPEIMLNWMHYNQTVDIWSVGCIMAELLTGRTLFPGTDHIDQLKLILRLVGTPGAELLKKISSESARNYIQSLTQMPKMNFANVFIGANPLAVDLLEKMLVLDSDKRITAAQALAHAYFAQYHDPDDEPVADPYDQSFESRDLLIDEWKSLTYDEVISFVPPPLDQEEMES
# 456 kinases (of these 395 non-mutant kinases) (Homo sapiens, UniProt O95747), sequence (O95747 2-527 limits assumed, stated change not applied): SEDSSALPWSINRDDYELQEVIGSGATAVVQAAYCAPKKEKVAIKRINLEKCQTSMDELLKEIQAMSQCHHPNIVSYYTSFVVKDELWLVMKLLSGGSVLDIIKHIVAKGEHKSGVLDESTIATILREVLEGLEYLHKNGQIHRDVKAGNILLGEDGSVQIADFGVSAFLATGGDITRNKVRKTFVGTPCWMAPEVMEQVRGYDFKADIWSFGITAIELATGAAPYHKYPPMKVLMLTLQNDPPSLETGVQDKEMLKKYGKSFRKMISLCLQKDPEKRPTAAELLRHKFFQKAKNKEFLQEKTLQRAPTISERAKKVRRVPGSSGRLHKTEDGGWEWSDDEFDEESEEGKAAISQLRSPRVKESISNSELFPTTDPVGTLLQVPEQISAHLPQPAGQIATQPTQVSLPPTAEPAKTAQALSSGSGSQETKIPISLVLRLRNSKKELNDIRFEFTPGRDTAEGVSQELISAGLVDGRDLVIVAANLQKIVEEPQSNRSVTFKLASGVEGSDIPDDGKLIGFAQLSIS
# 456 kinases (of these 395 non-mutant kinases) (Homo sapiens, UniProt P53350), sequence (P53350 2-603 limits assumed, change not shown): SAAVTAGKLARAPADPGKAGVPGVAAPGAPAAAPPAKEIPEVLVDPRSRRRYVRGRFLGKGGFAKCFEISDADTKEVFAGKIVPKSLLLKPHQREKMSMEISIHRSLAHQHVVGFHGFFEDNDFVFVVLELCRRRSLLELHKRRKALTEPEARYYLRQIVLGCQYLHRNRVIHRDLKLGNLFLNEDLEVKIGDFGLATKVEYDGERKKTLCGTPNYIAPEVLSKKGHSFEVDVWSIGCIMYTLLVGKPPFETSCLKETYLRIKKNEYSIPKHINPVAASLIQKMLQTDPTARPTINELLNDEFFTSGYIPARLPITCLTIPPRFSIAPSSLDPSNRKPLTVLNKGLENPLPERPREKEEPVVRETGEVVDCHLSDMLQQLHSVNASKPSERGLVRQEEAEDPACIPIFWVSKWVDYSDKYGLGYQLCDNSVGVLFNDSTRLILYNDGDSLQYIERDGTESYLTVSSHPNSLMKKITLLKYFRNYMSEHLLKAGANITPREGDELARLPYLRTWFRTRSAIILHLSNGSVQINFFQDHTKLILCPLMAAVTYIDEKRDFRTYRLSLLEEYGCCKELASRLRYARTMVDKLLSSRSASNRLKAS
smiles,measurement,setting,value
"CCc1ccccc1NC(=O)c1c(C)nsc1Nc1cnc2cc(F)ccc2n1 [Example 20, N-(2-Ethylphenyl)-5-[(6-fluoroquinoxalin-2-yl)amino]-3-methyl-1,2-thiazole-4-carboxamide]",% Ctrl @ 10 μM,[1],99 % Ctrl
same,% Ctrl @ 10 μM,[2],95 % Ctrl
same,% Ctrl @ 10 μM,[3],86 % Ctrl
same,% Ctrl @ 10 μM,[4],100 % Ctrl
same,% Ctrl @ 10 μM,[5],100 % Ctrl
same,% Ctrl @ 10 μM,[6],93 % Ctrl
same,% Ctrl @ 10 μM,[7],100 % Ctrl
same,% Ctrl @ 10 μM,[8],88 % Ctrl
same,% Ctrl @ 10 μM,[9],100 % Ctrl
same,% Ctrl @ 10 μM,[10],90 % Ctrl
same,% Ctrl @ 10 μM,[11],77 % Ctrl
same,% Ctrl @ 10 μM,[12],100 % Ctrl
same,% Ctrl @ 10 μM,[13],99 % Ctrl
same,% Ctrl @ 10 μM,[14],97 % Ctrl
same,% Ctrl @ 10 μM,[15],73 % Ctrl
same,% Ctrl @ 10 μM,[16],100 % Ctrl
same,% Ctrl @ 10 μM,[17],90 % Ctrl
same,% Ctrl @ 10 μM,[18],91 % Ctrl
same,% Ctrl @ 10 μM,[19],83 % Ctrl
same,% Ctrl @ 10 μM,[20],95 % Ctrl
same,% Ctrl @ 10 μM,[21],70 % Ctrl
same,% Ctrl @ 10 μM,[22],88 % Ctrl
same,% Ctrl @ 10 μM,[23]; ABL1(F317L)-nonphosphorylated,100 % Ctrl
same,% Ctrl @ 10 μM,[23]; ABL1(F317L)-phosphorylated,100 % Ctrl
same,% Ctrl @ 10 μM,[24],93 % Ctrl
same,% Ctrl @ 10 μM,[25],77 % Ctrl
same,% Ctrl @ 10 μM,[26],97 % Ctrl
same,% Ctrl @ 10 μM,[27],100 % Ctrl
same,% Ctrl @ 10 μM,[28],100 % Ctrl
same,% Ctrl @ 10 μM,[29],100 % Ctrl
same,% Ctrl @ 10 μM,[30],87 % Ctrl
same,% Ctrl @ 10 μM,[31],78 % Ctrl
same,% Ctrl @ 10 μM,[32],92 % Ctrl
